The subject of this data set is CCRIS mutagenicity, Ames/micronucleus/aberration tests. Description: CCRIS mutagenicity studies.
Setting [1] is: Test System: AMES SALMONELLA TYPHIMURIUM, Strain/Indicator: TA98, Metabolic Activation: HAMSTER, LIVER, S-9, AROCLOR 1254 (30%), Method: PREINCUBATION
[2] abbreviates: Test System: AMES SALMONELLA TYPHIMURIUM, Strain/Indicator: TA98, Metabolic Activation: NONE, Method: PREINCUBATION
Where [3] appears, read: Test System: AMES SALMONELLA TYPHIMURIUM, Strain/Indicator: TA98, Metabolic Activation: RAT, LIVER, S-9, AROCLOR 1254 (30%), Method: PREINCUBATION
[4] abbreviates: Test System: AMES SALMONELLA TYPHIMURIUM, Strain/Indicator: TA100, Metabolic Activation: HAMSTER, LIVER, S-9, AROCLOR 1254 (30%), Method: PREINCUBATION
Where [5] appears, read: Test System: AMES SALMONELLA TYPHIMURIUM, Strain/Indicator: TA100, Metabolic Activation: NONE, Method: PREINCUBATION
[6] abbreviates: Test System: AMES SALMONELLA TYPHIMURIUM, Strain/Indicator: TA100, Metabolic Activation: RAT, LIVER, S-9, AROCLOR 1254 (30%), Method: PREINCUBATION
Where [7] appears, read: Test System: AMES SALMONELLA TYPHIMURIUM, Strain/Indicator: TA100, Metabolic Activation: NONE, Method: STANDARD PLATE.

Entries after “also recorded” stand apart in the source; their conditions may differ. Calls of active or inactive are those of the source. The rule behind the calls is not given here.

For the molecule `CCCCCCCC(=O)Cl`, the mutagenic call reads like this: under setting [1], “inactive; negative”; under setting [2], “inactive; negative”; under setting [3], “inactive; negative”; (Test System: AMES SALMONELLA TYPHIMURIUM, Strain/Indicator: TA100, Metabolic Activation: HAMSTER, LIVER, S-9, AROCLOR 1254 (5%), Method: PREINCUBATION) “active; positive”; (Test System: AMES SALMONELLA TYPHIMURIUM, Strain/Indicator: TA100, Metabolic Activation: HAMSTER, LIVER, S-9, AROCLOR 1254 (10 OR 30%), Method: PREINCUBATION) “inactive; negative”; under setting [4], “active; positive”. Also, the mutagenic call reads like this: under setting [5], “inactive; negative”; (Test System: AMES SALMONELLA TYPHIMURIUM, Strain/Indicator: TA100, Metabolic Activation: RAT, LIVER, S-9, AROCLOR 1254 (5 OR 10%), Method: PREINCUBATION) “inactive; negative”; under setting [6], “inactive; negative”; (Test System: AMES SALMONELLA TYPHIMURIUM, Strain/Indicator: TA1535, Metabolic Activation: HAMSTER, LIVER, S-9, AROCLOR 1254 (5, 10 OR 30%), Method: PREINCUBATION) “inactive; negative”; (Test System: AMES SALMONELLA TYPHIMURIUM, Strain/Indicator: TA1535, Metabolic Activation: RAT, LIVER, S-9, AROCLOR 1254 (5, 10 OR 30%), Method: PREINCUBATION) “inactive; negative”.
For the molecule `CC1=C(Cl)C(=O)NC1=O`, the mutagenic call under setting [7] was “inactive; negative”.
As for `O=C[C@H](O)[C@@H](O)[C@H](O)[C@H](O)CO`, the mutagenic call (Test System: AMES SALMONELLA TYPHIMURIUM, Strain/Indicator: TA98, Metabolic Activation: RAT LIVER S-9, CHLOROPHENE, Method: STANDARD PLATE (COMPOUND HEATED AT 250 DEGREES CELSIUS FOR 20 MIN)) is “inactive; negative” and the mutagenic call (Test System: MOUSE LYMPHOMA, Strain/Indicator: L5178Y (TK+/TK-), Metabolic Activation: NONE, Method: SUSPENSION/PLATE) was “active; positive”.
Regarding `O=S(=O)(O)c1cccc2cccnc12`, the mutagenic call is, setting by setting: (Test System: AMES SALMONELLA TYPHIMURIUM, Strain/Indicator: TA98, Metabolic Activation: NONE, Method: STANDARD PLATE) “inactive; negative”; (Test System: AMES SALMONELLA TYPHIMURIUM, Strain/Indicator: TA98, Metabolic Activation: RAT, LIVER, S-9, AROCLOR 1254, Method: STANDARD PLATE) “inactive; negative”; under setting [7], “inactive; negative”; (Test System: AMES SALMONELLA TYPHIMURIUM, Strain/Indicator: TA100, Metabolic Activation: RAT, LIVER, S-9, AROCLOR 1254, Method: STANDARD PLATE) “inactive; negative”; (Test System: AMES SALMONELLA TYPHIMURIUM, Strain/Indicator: TA1535, Metabolic Activation: NONE, Method: STANDARD PLATE) “inactive; negative”; (Test System: AMES SALMONELLA TYPHIMURIUM, Strain/Indicator: TA1535, Metabolic Activation: RAT, LIVER, S-9, AROCLOR 1254, Method: STANDARD PLATE) “inactive; negative”. For the same molecule, the mutagenic call is, setting by setting: (Test System: AMES SALMONELLA TYPHIMURIUM, Strain/Indicator: TA1537, Metabolic Activation: NONE, Method: STANDARD PLATE) “inactive; negative”; (Test System: AMES SALMONELLA TYPHIMURIUM, Strain/Indicator: TA1537, Metabolic Activation: RAT, LIVER, S-9, AROCLOR 1254, Method: STANDARD PLATE) “inactive; negative”.
With `Cc1cn([C@H]2C[C@H](O)[C@@H](CO)O2)c(=O)[nH]c1=O`, the mutagenic call is, setting by setting: (Test System: AMES SALMONELLA TYPHIMURIUM, Strain/Indicator: TA97, Metabolic Activation: NONE, Method: PREINCUBATION) “inactive; negative”; (Test System: AMES SALMONELLA TYPHIMURIUM, Strain/Indicator: TA97, Metabolic Activation: RAT, LIVER, S-9, AROCLOR 1254, Method: PREINCUBATION) “inactive; negative”; under setting [5], “inactive; negative”; (Test System: AMES SALMONELLA TYPHIMURIUM, Strain/Indicator: TA100, Metabolic Activation: RAT, LIVER, S-9, AROCLOR 1254, Method: PREINCUBATION) “inactive; negative”; (Test System: CHINESE HAMSTER V-79, Strain/Indicator: V-79 (HPRT)/6-THIOGUANINE, Metabolic Activation: NONE, Method: STANDARD PLATE) “inactive; negative”; (Test System: CHINESE HAMSTER V-79, Strain/Indicator: V-79/6-THIOGUANINE, Metabolic Activation: NONE, Method: STANDARD PLATE) “active; positive”. For the same molecule, for the setting “Test System: CHINESE HAMSTER V-79, Strain/Indicator: V-79/8-AZAGUANINE, Metabolic Activation: NONE”, the mutagenic call is “inactive; negative”.
Consider `COc1ccc(C)cc1N`, for which the mutagenic call reads like this: (End Point: In vitro chromosomal aberrations, Test System: Chinese hamster lung (CHL/IU) cells, Metabolic Activation: None) “active; positive (structural changes). toxicity at 1.2 mg/ml; also recorded: active; positive (structural changes). toxicity at 0.60 mg/ml; also recorded: active; positive (structural changes). toxicity at 0.8 mg/ml; no dose response observed”; (End Point: In vitro chromosomal aberrations, Test System: Chinese hamster lung (CHL/IU) cells, Metabolic Activation: Rat, Liver, S9, Phenobarbital and 5,6-benzoflavone) “active; positive (structural changes and ploidy). toxicity at 1.2 mg/ml; no dose respons”; (End Point: In vivo micronucleus, Test System: Polychromatic erythrocytes, Species: Mouse, Strain/Sex: C57BL/6TacBr-[KO]p53[TSG-p53], Route: Oral) “active; positive at all days”; under setting [1], “active; positive”; (Test System: AMES SALMONELLA TYPHIMURIUM, Strain/Indicator: TA98, Metabolic Activation: HAMSTER, LIVER, S-9, PHENOBARBITAL AND BETA-NAPHTHOFLAVONE, Method: PREINCUBATION) “active; positive”; under setting [2], “inactive; negative”. Further, the mutagenic call by setting is: under setting [3], “active; positive”; under setting [4], “active; positive”; (Test System: AMES SALMONELLA TYPHIMURIUM, Strain/Indicator: TA100, Metabolic Activation: HAMSTER, LIVER, S-9, PHENOBARBITAL AND BETA-NAPHTHOFLAVONE, Method: PREINCUBATION) “active; positive”; under setting [5], “inactive; negative”; under setting [6], “active; positive”; (Test System: AMES SALMONELLA TYPHIMURIUM, Strain/Indicator: TA1535, Metabolic Activation: HAMSTER, LIVER, S-9, PHENOBARBITAL AND BETA-NAPHTHOFLAVONE, Method: PREINCUBATION) “inactive; negative”. The mutagenic call is, setting by setting: (Test System: AMES SALMONELLA TYPHIMURIUM, Strain/Indicator: TA1535, Metabolic Activation: NONE, Method: PREINCUBATION) “inactive; negative”; (Test System: AMES SALMONELLA TYPHIMURIUM, Strain/Indicator: TA1537, Metabolic Activation: HAMSTER, LIVER, S-9, PHENOBARBITAL AND BETA-NAPHTHOFLAVONE, Method: PREINCUBATION) “active; positive”; (Test System: AMES SALMONELLA TYPHIMURIUM, Strain/Indicator: TA1537, Metabolic Activation: NONE, Method: PREINCUBATION) “inactive; negative”; (Test System: E. COLI, Strain/Indicator: WP2UVRA, Metabolic Activation: HAMSTER, LIVER, S-9, PHENOBARBITAL AND BETA-NAPHTHOFLAVONE, Method: PREINCUBATION) “inactive; negative”; (Test System: E. COLI, Strain/Indicator: WP2 UVRA, Metabolic Activation: HAMSTER, LIVER, S-9, Method: STANDARD PLATE) “inactive; negative”; (Test System: E. COLI, Strain/Indicator: WP2 UVRA, Metabolic Activation: MOUSE, LIVER, S-9, AROCLOR 1254, Method: STANDARD PLATE) “inactive; negative”. For the same molecule, the mutagenic call is “inactive; negative” (Test System: E. COLI, Strain/Indicator: WP2UVRA, Metabolic Activation: NONE, Method: PREINCUBATION); “inactive; negative” (Test System: E. COLI, Strain/Indicator: WP2 UVRA, Metabolic Activation: NONE, Method: STANDARD PLATE); “inactive; negative” (Test System: E. COLI, Strain/Indicator: WP2 UVRA, Metabolic Activation: RAT, LIVER, S-9, AROCLOR 1254, Method: STANDARD PLATE); “inactive; negative” (Test System: E. COLI, Strain/Indicator: WP2 UVRA, Metabolic Activation: RAT, LIVER, S-9, Method: STANDARD PLATE); “inactive; negative” (Test System: UDS RODENT HEPATOCYTES, Strain/Indicator: THY INCORP (NON-S-PHASE), Metabolic Activation: NONE, Method: AUTORADIOGRAPHY).

The values above are taken from PubChem BioAssay AID1259407 (Chemical Carcinogenesis Research Information System (CCRIS), 2018).
